Tested on: BT20 Cell
Test: Cancer Cell Lysate Total L-Glutamate Assay
Format: cell-based
Conditions: total L-glutamate in cell lysate, BT20 cells, 2 hour incubation with test compound
Method in brief: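 BT20 and other cancer lines at ~80% confluence were given fresh L-glutamine-containing medium, then treated with serially diluted compound (0.5% DMSO) for 2 hours at 37° C. Washed cells were lysed by freeze-thaw and sonication. Lysate glutamate was measured via glutamate oxidase/HRP/50 μM Amplex Red fluorescence (ex 530-560, em 585 nm); IC50 by four-parameter logistic fit.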

Structure (SMILES)	IC50 (Homo sapiens, BT-20, 2 h) [nM]	IC50 [nM]
CC(=O)Nc1ccc(C[C@H]2C[C@@H](c3nnc(NC(=O)Cc4ccccn4)s3)C2)nn1 (single isomer, unassigned) [Example 114, N-[5-(cis-3-{[6-(acetylamino)pyridazin-3-yl]methyl}cyclobutyl)-1,3,4-thiadiazol-2-yl]-2-(pyridin-2-yl)acetamide]	6.5	–
CC(=O)Nc1nnc([C@H]2C[C@H](Cc3ccc(NC(=O)Cc4ccccn4)nn3)C2)s1 (single isomer, unassigned) [Example 115, N-[6-({trans-3-[5-(acetylamino)-1,3,4-thiadiazol-2-yl]cyclobutyl}methyl)pyridazin-3-yl]-2-(pyridin-2-yl)acetamide]	2	–
O=C(Cc1ccccn1)Nc1ccc(C[C@H]2CC[C@@H](c3nnc(NC(=O)c4ccccn4)s3)C2)nn1 (single isomer, unassigned) [Example 116, N-{5-[(cis)-3-({6-[(pyridin-2-ylacetyl)amino]pyridazin-3-yl}methyl)cyclopentyl]-1,3,4-thiadiazol-2-yl}pyridine-2-carboxamide]	5.9	–
O=C(Cc1ccccn1)Nc1ccc(C[C@@H]2CC[C@H](c3nnc(NC(=O)c4ccccn4)s3)C2)nn1 (single isomer, unassigned) [Example 117, N-{5-[(cis)-3-({6-[(pyridin-2-ylacetyl)amino]pyridazin-3-yl}methyl)cyclopentyl]-1,3,4-thiadiazol-2-yl}pyridine-2-carboxamide]	1.4	–
O=C(Cc1ccccc1)Nc1ccc(C[C@H]2C[C@@H](c3nnc(NC(=O)Cc4ccccn4)s3)C2)nn1 (single isomer, unassigned) [Example 118, 2-phenyl-N-{6-[(cis-3-{5-[(pyridin-2-ylacetyl)amino]-1,3,4-thiadiazol-2-yl}cyclobutyl)methyl]pyridazin-3-yl}acetamide]	0.2	–
O=C(Cc1ccccn1)Nc1ccc([C@H]2C[C@H](Cc3nnc(NC(=O)Cc4ccccn4)s3)C2)nn1 (single isomer, unassigned) [Example 123, 2-(pyridin-2-yl)-N-{5-[(trans-3-{6-[(pyridin-2-ylacetyl)amino]pyridazin-3-yl}cyclobutyl)methyl]-1,3,4-thiadiazol-2-yl}acetamide]	1.8	–
O=C(Cc1ccccn1)Nc1ccc([C@H]2C[C@@H](Cc3nnc(NC(=O)Cc4ccccn4)s3)C2)nn1 (single isomer, unassigned) [Example 124, 2-(pyridin-2-yl)-N-{5-[(cis-3-{6-[(pyridin-2-ylacetyl)amino]pyridazin-3-yl}cyclobutyl)methyl]-1,3,4-thiadiazol-2-yl}acetamide]	4.7	–
CC(C)C(=O)Nc1ccc([C@H]2C[C@@H](Cc3nnc(NC(=O)Cc4ccccn4)s3)C2)nn1 (single isomer, unassigned) [Example 125, 2-methyl-N-{6-[cis-3-({5-[(pyridin-2-ylacetyl)amino]-1,3,4-thiadiazol-2-yl}methyl)cyclobutyl]pyridazin-3-yl}propanamide]	3.1	–
Cn1ccc(CC(=O)Nc2nnc([C@H]3CC[C@@H](Cc4ccc(NC(=O)Cc5ccccn5)nn4)C3)s2)n1 (single isomer, unassigned) [Example 126, 2-(1-methyl-1H-pyrazol-3-yl)-N-{5-[(cis)-3-({6-[(pyridin-2-ylacetyl)amino]pyridazin-3-yl}methyl)cyclopentyl]-1,3,4-thiadiazol-2-yl}acetamide]	0.5	–
O=C(Cc1ccccn1)Nc1nnc(C[C@@H]2CC[C@H](c3nnc(Nc4ccccn4)s3)C2)s1 (single isomer, unassigned) [Example 133, 2-(pyridin-2-yl)-N-[5-({(cis)-3-[5-(pyridin-2-ylamino)-1,3,4-thiadiazol-2-yl]cyclopentyl}methyl)-1,3,4-thiadiazol-2-yl]acetamide]	1.7	–
O=C(Cc1ccccc1)Nc1ccc(C[C@@H]2CC[C@H](c3nnc(NC(=O)Cc4ccccn4)s3)C2)nn1 [Example 80, 2-phenyl-N-(6-{[(1R,3S)-3-{5-[(pyridin-2-ylacetyl)amino]-1,3,4-thiadiazol-2-yl}cyclopentyl]methyl}pyridazin-3-yl)acetamide]	0.1	–
CC(C)C(=O)Nc1nnc([C@H]2CC3(C[C@H](c4nnc(NC(=O)C(C)C)s4)C3)C2)s1 (stereo partly shown) [Example 95, N,N′-(spiro[3.3]heptane-2,6-diyldi-1,3,4-thiadiazole-5,2-diyl)bis(2-methylpropanamide)]	1.4	–
Cn1ccc(CC(=O)Nc2nnc([C@H]3CC4(C[C@H](c5nnc(NC(=O)Cc6ccn(C)n6)s5)C4)C3)s2)n1 (stereo partly shown) [Example 97, N,N′-(spiro[3.3]heptane-2,6-diyldi-1,3,4-thiadiazole-5,2-diyl)bis[2-(1-methyl-1H-pyrazol-3-yl)acetamide]]	–	2.7
Cn1ccc(CC(=O)Nc2nnc([C@H]3CC4(C[C@H](c5nnc(NC(=O)Cc6ccn(C)n6)s5)C4)C3)s2)n1 (stereo partly shown) [Example 98, N,N′-(spiro[3.3]heptane-2,6-diyldi-1,3,4-thiadiazole-5,2-diyl)bis[2-(1-methyl-1H-pyrazol-3-yl)acetamide]]	–	0.5
CCC(=O)Nc1nnc(C2CC3(C2)CC(c2nnc(NC(=O)CC)s2)C3)s1 (stereo not shown) [Example 134, N,N′-(spiro[3.3]heptane-2,6-diyldi-1,3,4-thiadiazole-5,2-diyl)dipropanamide]	1.3	–

The remaining lines, values ahead:

IC50 (Homo sapiens, BT-20, 2 h) [nM]	IC50 [nM]	Structure (SMILES)
4	–	COCCC(=O)Nc1nnc([C@@H]2CC[C@H](Cc3ccc(NC(=O)Cc4ccccn4)nn3)C2)s1 (single isomer, unassigned) [Example 121, 3-methoxy-N-{5-[(cis)-3-({6-[(pyridin-2-ylacetyl)amino]pyridazin-3-yl}methyl)cyclopentyl]-1,3,4-thiadiazol-2-yl}propanamide]
0.4	–	COCCC(=O)Nc1nnc([C@H]2CC[C@@H](Cc3ccc(NC(=O)Cc4ccccn4)nn3)C2)s1 (single isomer, unassigned) [Example 122, 3-methoxy-N-{5-[(cis)-3-({6-[(pyridin-2-ylacetyl)amino]pyridazin-3-yl}methyl)cyclopentyl]-1,3,4-thiadiazol-2-yl}propanamide]
0.7	–	Cn1ccc(CC(=O)Nc2nnc([C@@H]3CC[C@H](Cc4ccc(NC(=O)Cc5ccccn5)nn4)C3)s2)n1 (single isomer, unassigned) [Example 127, 2-(1-methyl-1H-pyrazol-3-yl)-N-{5-[(cis)-3-({6-[(pyridin-2-ylacetyl)amino]pyridazin-3-yl}methyl)cyclopentyl]-1,3,4-thiadiazol-2-yl}acetamide]
1.8	–	O=C(Cc1ccccn1)Nc1ccc(C[C@@H]2CC[C@H](c3nnc(NC(=O)C[C@H]4CCCO4)s3)C2)nn1 (single isomer, unassigned) [Example 130]
3.1	–	O=C(Cc1ccccn1)Nc1ccc(C[C@H]2CC[C@@H](c3nnc(NC(=O)C[C@H]4CCCO4)s3)C2)nn1 (single isomer, unassigned) [Example 131]
0.2	–	CCC(=O)Nc1nnc([C@H]2CC[C@@H](Cc3ccc(NC(=O)Cc4ccccn4)nn3)C2)s1 [Example 119, N-{5-[(1S,3R)-3-({6-[(pyridin-2-ylacetyl)amino]pyridazin-3-yl}methyl)cyclopentyl]-1,3,4-thiadiazol-2-yl}propanamide]
0.4	–	CC(C)C(=O)Nc1nnc([C@H]2CC[C@@H](Cc3ccc(NC(=O)Cc4ccccn4)nn3)C2)s1 [Example 120, 2-methyl-N-{5-[(1S,3R)-3-({6-[(pyridin-2-ylacetyl)amino]pyridazin-3-yl}methyl)cyclopentyl]-1,3,4-thiadiazol-2-yl}propanamide]

From US10676471B2, “Cycloalkyl-linked diheterocycle derivatives” (Pfizer Inc., priority 2014, dated 2020)
